Measurements published in the NIST ThermoML archive (doi:10.1016/j.fluid.2013.06.021).

Assay: xn = mol fraction of the nth substance listed
Conditions: 101 kPa, Liquid; for speed of sound: Sing-around technique in a fixed-path interferometer; for mass density: Vibrating tube method; for viscosity: Capillary tube (Ostwald / Ubbelohde) method

CCCCOCCO [2-butoxyethan-1-ol] + CC(C)O
Conditions	mass density, 303.15 K [kg/m3]	mass density, 308.15 K [kg/m3]	mass density, 313.15 K [kg/m3]	speed of sound, 303.15 K [m/s]	speed of sound, 308.15 K [m/s]	speed of sound, 313.15 K [m/s]	viscosity, 308.15 K [mPa·s]
x1 = 0.0539	787.87	783.58	778.94	–	1125.5	1108	–
x1 = 0.054	–	–	–	–	–	–	1.576
x1 = 0.1088	797.64	793.36	788.77	–	1137.7	1120.2	1.587
x1 = 0.1607	806.24	801.96	797.4	–	1148.9	1131.4	1.606
x1 = 0.2041	812.99	808.71	804.16	–	1157.9	1140.5	1.624
x1 = 0.2567	820.65	816.4	811.87	–	1168.5	1151.3	1.654
x1 = 0.3095	827.86	823.61	819.11	–	1178.8	1161.5	1.678
x1 = 0.4041	839.68	835.44	830.99	–	1195.9	1178.7	1.734
x1 = 0.5041	850.85	846.62	842.22	1229.2	1212.1	1195.1	1.809
x1 = 0.6113	861.54	857.32	852.97	1244.9	1228	1211.1	1.886
x1 = 0.7078	870.2	865.98	861.66	1257.7	1240.6	1223.7	–
x1 = 0.7079	–	–	–	–	–	–	1.968
x1 = 0.8095	878.49	874.28	870.01	1269.7	1252.6	1235.8	2.056
x1 = 0.857	882.1	877.88	873.63	1274.8	1257.8	1241	2.101
x1 = 0.9069	885.74	881.52	877.27	1280	1263	1246.2	2.145
x1 = 0.9527	888.94	884.72	880.47	1284.7	1267.7	1250.8	2.188
